How the values were obtained:
[1] = test system: late watergrass; assay: Test Example 1: herbicidal activity, application before weed generation under submerged conditions (Table 16, symbol A); assay type: in vivo, late watergrass (Echinochloa oryzicola); conditions: 320 g/ha applied herbicide
Summary of the method: (§1)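 Emulsion formulation, water-diluted to set dose, was put onto the flooded surface (4 cm depth, alluvial soil) the same day weeds were sown and 2.5-leaf rice transplanted. After 3 weeks at 25-30 °C under glass, each species was rated 0 (≤5% kill) to 5 (≥90% kill).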

[2] = test system: Japanese bulrush; assay: Test Example 1: herbicidal activity, application before weed generation under submerged conditions (Table 16, symbol B); assay type: in vivo, Japanese bulrush (Schoenoplectus juncoides); conditions: 320 g/ha applied herbicide
Summary of the method: as §1

[3] = test system: oval-leafed pondweed; assay: Test Example 1: herbicidal activity, application before weed generation under submerged conditions (Table 16, symbol C); assay type: in vivo, oval-leafed pondweed (Monochoria vaginalis); conditions: 320 g/ha applied herbicide
Summary of the method: as §1

[4] = test system: barnyard grass; assay: Test Example 3: herbicidal effect by foliage application, Wagner pot (Table 18, symbol H); assay type: in vivo, barnyard grass (Echinochloa crus-galli); conditions: for herbicidal effect on H (barnyard grass), rating 0-5: 320 g/ha
Summary of the method: (§2)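 Plants were sown in alluvial soil held under 0.1–0.5 cm standing water and grown 14 days in a greenhouse at 25–30 °C. An emulsifiable formulation, water-diluted to the set dose, was then sprayed onto the foliage, and effects were scored three weeks later using previously defined criteria.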

[5] = test system: Chinese sprangletop; assay: Test Example 3: herbicidal effect by foliage application, Wagner pot (Table 18, symbol D); assay type: in vivo, chinese sprangletop (Leptochloa chinensis); conditions: for herbicidal effect on D (Chinese sprangletop), rating 0-5: 320 g/ha
Summary of the method: as §2

[6] = test system: rice flat sedge; assay: Test Example 3: herbicidal effect by foliage application, Wagner pot (Table 18, symbol E); assay type: in vivo, rice flat sedge (Cyperus iria); conditions: for herbicidal effect on E (rice flat sedge), rating 0-5: 320 g/ha
Summary of the method: as §2

[7] = test system: Italian ryegrass; assay: Test Example 4: herbicidal effect by soil treatment (Table 19, symbol K); assay type: in vivo, Italian ryegrass (Lolium multiflorum)
Summary of the method: (§3)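 Soil-surface application: an emulsion agent diluted with water to the predetermined dose is sprayed uniformly over seeds lying under roughly 1.5 cm of sterilized diluvial soil. Boxes stay in a greenhouse at 25° C. to 30° C. Three weeks later, each species is graded on previously defined criteria.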

[8] = test system: windgrass; assay: Test Example 4: herbicidal effect by soil treatment (Table 19, symbol L); assay type: in vivo, windgrass (Apera spica-venti)
Summary of the method: as §3

[9] = test system: lambsquarters; assay: Test Example 4: herbicidal effect by soil treatment (Table 19, symbol O); assay type: in vivo, lambsquarters (Chenopodium album)
Summary of the method: as §3

[10] = test system: chickweed; assay: Test Example 4: herbicidal effect by soil treatment (Table 19, symbol P); assay type: in vivo, common chickweed (Stellaria media)
Summary of the method: as §3

[11] = test system: southern crabgrass; assay: Test Example 5: herbicidal effect by foliage application, plastic box (Table 20, symbol F); assay type: in vivo, southern crabgrass (Digitaria ciliaris); conditions: foliage application
Summary of the method: (§4)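 Sow seeds spot-wise in sterilized diluvial soil; cover with ~1.5 cm soil. Grow 14 days in greenhouse, 25° C. to 30° C. Spray foliage with emulsion diluted to predetermined amount. Rate effect after 3 weeks.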

[12] = test system: green foxtail; assay: Test Example 5: herbicidal effect by foliage application, plastic box (Table 20, symbol G); assay type: in vivo, green foxtail (Setaria viridis); conditions: foliage application
Summary of the method: as §4

[13] = test system: wild oat; assay: Test Example 5: herbicidal effect by foliage application, plastic box (Table 20, symbol I); assay type: in vivo, wild oat (Avena fatua); conditions: foliage application
Summary of the method: as §4

[14] = test system: blackgrass; assay: Test Example 5: herbicidal effect by foliage application, plastic box (Table 20, symbol J); assay type: in vivo, blackgrass (Alopecurus myosuroides); conditions: foliage application
Summary of the method: as §4

[15] = test system: Italian ryegrass; assay: Test Example 5: herbicidal effect by foliage application, plastic box (Table 20, symbol K); assay type: in vivo, Italian ryegrass (Lolium multiflorum); conditions: foliage application
Summary of the method: as §4

[16] = test system: velvetleaf; assay: Test Example 5: herbicidal effect by foliage application, plastic box (Table 20, symbol M); assay type: in vivo, velvetleaf (Abutilon theophrasti); conditions: foliage application
Summary of the method: as §4

[17] = test system: lambsquarters; assay: Test Example 5: herbicidal effect by foliage application, plastic box (Table 20, symbol O); assay type: in vivo, lambsquarters (Chenopodium album); conditions: foliage application
Summary of the method: as §4

[18] = 320 g/ha, 3 weeks after application
[19] = amount of applied herbicide 320 g/ha
[20] = 320 g/ha, evaluated three weeks after application
[21] = AAH 320 g/ha, evaluated three weeks after application

SMILES: C#CCSCc1ccc(-c2sc3ccccc3c2-c2c(O)c(C)nn(C)c2=O)cc1 [1-247]
- Herbicidal effect on A: late watergrass (grade 0-5) [1]: 2 (Herbicidal rate of 20% or more and less than 40%)
- Herbicidal effect on B: Japanese bulrush (grade 0-5) [2]: 2 (Herbicidal rate of 20% or more and less than 40%)
- Herbicidal effect on C: oval-leafed pondweed (grade 0-5) [3]: 0 (Herbicidal rate of 5% or less (almost no effect))
- herbicidal effect on H (barnyard grass), rating 0-5 [4]: 5 (Herbicidal rate of 90% or more (almost completely withered))
- herbicidal effect on D (Chinese sprangletop), rating 0-5 [5]: 1 (Herbicidal rate of 5% or more and less than 20%)
- herbicidal effect on E (rice flat sedge), rating 0-5 [6]: 4 (Herbicidal rate of 70% or more and less than 90%)
- K: Italian ryegrass, herbicidal effect rating ([7]; AAH 320 g/ha): 3 (Herbicidal rate of 40% or more and less than 70%)
- L: windgrass, herbicidal effect rating ([8]; AAH 320 g/ha): 0 (Herbicidal rate of 5% or less (almost no effect))
- O: lambsquarters, herbicidal effect rating ([9]; AAH 320 g/ha): 3 (Herbicidal rate of 40% or more and less than 70%)
- P: chickweed, herbicidal effect rating ([10]; AAH 320 g/ha): 4 (Herbicidal rate of 70% or more and less than 90%)
- effect on southern crabgrass (F) [11, 18]: 2 (Herbicidal rate of 20% or more and less than 40%)
- effect on green foxtail (G) [12, 18]: 4 (Herbicidal rate of 70% or more and less than 90%)
- effect on wild oat (I) [13, 18]: 1 (Herbicidal rate of 5% or more and less than 20%)
- effect on blackgrass (J) [14, 18]: 0 (Herbicidal rate of 5% or less (almost no effect))
- effect on Italian ryegrass (K) [15, 18]: 4 (Herbicidal rate of 70% or more and less than 90%)
- effect on velvetleaf (M) [16, 18]: 5 (Herbicidal rate of 90% or more (almost completely withered))
- effect on lambsquarters (O) [17, 18]: 5 (Herbicidal rate of 90% or more (almost completely withered))

SMILES: CCCC(=O)Oc1c(C)nn(C)c(=O)c1-c1c(-c2ccc(Cl)cc2)sc2ccc(Cl)cc12 [2-100]
- Herbicidal effect on A: late watergrass (grade 0-5) [1]: 3 (Herbicidal rate of 40% or more and less than 70%)
- Herbicidal effect on B: Japanese bulrush (grade 0-5) [2]: 3 (Herbicidal rate of 40% or more and less than 70%)
- Herbicidal effect on C: oval-leafed pondweed (grade 0-5) [3]: 2 (Herbicidal rate of 20% or more and less than 40%)
- herbicidal effect on H (barnyard grass), rating 0-5 [4]: 5 (Herbicidal rate of 90% or more (almost completely withered))
- herbicidal effect on D (Chinese sprangletop), rating 0-5 [5]: 4 (Herbicidal rate of 70% or more and less than 90%)
- herbicidal effect on E (rice flat sedge), rating 0-5 [6]: 3 (Herbicidal rate of 40% or more and less than 70%)
- K: Italian ryegrass, herbicidal effect rating [7, 19]: 3 (Herbicidal rate of 40% or more and less than 70%)
- L: windgrass, herbicidal effect rating [8, 19]: 3 (Herbicidal rate of 40% or more and less than 70%)
- O: lambsquarters, herbicidal effect rating [9, 19]: 2 (Herbicidal rate of 20% or more and less than 40%)
- P: chickweed, herbicidal effect rating [10, 19]: 1 (Herbicidal rate of 5% or more and less than 20%)
- herbicidal effect on F: southern crabgrass [11, 20]: 4 (Herbicidal rate of 70% or more and less than 90%)
- herbicidal effect on G: green foxtail [12, 20]: 4 (Herbicidal rate of 70% or more and less than 90%)
- herbicidal effect on I: wild oat [13, 20]: 5 (Herbicidal rate of 90% or more (almost completely withered))
- herbicidal effect on J: blackgrass [14, 20]: 4 (Herbicidal rate of 70% or more and less than 90%)
- herbicidal effect on K: Italian ryegrass [15, 20]: 5 (Herbicidal rate of 90% or more (almost completely withered))
- herbicidal effect on M: velvetleaf [16, 20]: 5 (Herbicidal rate of 90% or more (almost completely withered))
- herbicidal effect on O: lambsquarters [17, 20]: 4 (Herbicidal rate of 70% or more and less than 90%)

SMILES: Cc1nn(C)c(=O)c(-c2c(-c3ccc(OCc4ccccc4)cc3)sc3ccc(F)cc23)c1O [2-062]
- Herbicidal effect on A: late watergrass (grade 0-5) [1]: 4 (Herbicidal rate of 70% or more and less than 90%)
- Herbicidal effect on B: Japanese bulrush (grade 0-5) [2]: 4 (Herbicidal rate of 70% or more and less than 90%)
- Herbicidal effect on C: oval-leafed pondweed (grade 0-5) [3]: 3 (Herbicidal rate of 40% or more and less than 70%)
- herbicidal effect on H (barnyard grass), rating 0-5 [4]: 5 (Herbicidal rate of 90% or more (almost completely withered))
- herbicidal effect on D (Chinese sprangletop), rating 0-5 [5]: 5 (Herbicidal rate of 90% or more (almost completely withered))
- herbicidal effect on E (rice flat sedge), rating 0-5 [6]: 5 (Herbicidal rate of 90% or more (almost completely withered))
- herbicidal effect rating, K: Italian ryegrass ([7]; 320 g/ha): 0 (Herbicidal rate of 5% or less (almost no effect))
- herbicidal effect rating, L: windgrass ([8]; 320 g/ha): 0 (Herbicidal rate of 5% or less (almost no effect))
- herbicidal effect rating, O: lambsquarters ([9]; 320 g/ha): 3 (Herbicidal rate of 40% or more and less than 70%)
- herbicidal effect rating, P: chickweed ([10]; 320 g/ha): 0 (Herbicidal rate of 5% or less (almost no effect))
- herbicidal effect on F: southern crabgrass [11, 20]: 3 (Herbicidal rate of 40% or more and less than 70%)
- herbicidal effect on G: green foxtail [12, 20]: 5 (Herbicidal rate of 90% or more (almost completely withered))
- herbicidal effect on I: wild oat [13, 20]: 0 (Herbicidal rate of 5% or less (almost no effect))
- herbicidal effect on J: blackgrass [14, 20]: 1 (Herbicidal rate of 5% or more and less than 20%)
- herbicidal effect on K: Italian ryegrass [15, 20]: 1 (Herbicidal rate of 5% or more and less than 20%)
- herbicidal effect on M: velvetleaf [16, 20]: 3 (Herbicidal rate of 40% or more and less than 70%)
- herbicidal effect on O: lambsquarters [17, 20]: 5 (Herbicidal rate of 90% or more (almost completely withered))

SMILES: COCCSCc1ccc(-c2sc3ccc(F)cc3c2-c2c(O)c(C)nn(C)c2=O)cc1 [2-327]
- Herbicidal effect on A: late watergrass (grade 0-5) [1]: 3 (Herbicidal rate of 40% or more and less than 70%)
- Herbicidal effect on B: Japanese bulrush (grade 0-5) [2]: 3 (Herbicidal rate of 40% or more and less than 70%)
- Herbicidal effect on C: oval-leafed pondweed (grade 0-5) [3]: 3 (Herbicidal rate of 40% or more and less than 70%)
- herbicidal effect on H: barnyard grass [4, 19]: 5 (Herbicidal rate of 90% or more (almost completely withered))
- herbicidal effect on D: Chinese sprangletop [5, 19]: 3 (Herbicidal rate of 40% or more and less than 70%)
- herbicidal effect on E: rice flat sedge [6, 19]: 4 (Herbicidal rate of 70% or more and less than 90%)
- herbicidal effect on K: Italian ryegrass [7, 19]: 4 (Herbicidal rate of 70% or more and less than 90%)
- herbicidal effect on L: windgrass [8, 19]: 0 (Herbicidal rate of 5% or less (almost no effect))
- herbicidal effect on O: lambsquarters [9, 19]: 4 (Herbicidal rate of 70% or more and less than 90%)
- herbicidal effect on P: chickweed [10, 19]: 1 (Herbicidal rate of 5% or more and less than 20%)
- F: southern crabgrass, herbicidal effect (criteria 0-5) [11, 21]: 4 (Herbicidal rate of 70% or more and less than 90%)
- G: green foxtail, herbicidal effect (criteria 0-5) [12, 21]: 5 (Herbicidal rate of 90% or more (almost completely withered))
- I: wild oat, herbicidal effect (criteria 0-5) [13, 21]: 3 (Herbicidal rate of 40% or more and less than 70%)
- J: blackgrass, herbicidal effect (criteria 0-5) [14, 21]: 4 (Herbicidal rate of 70% or more and less than 90%)
- K: Italian ryegrass, herbicidal effect (criteria 0-5) [15, 21]: 4 (Herbicidal rate of 70% or more and less than 90%)
- M: velvetleaf, herbicidal effect (criteria 0-5) [16, 21]: 5 (Herbicidal rate of 90% or more (almost completely withered))
- O: lambsquarters, herbicidal effect (criteria 0-5) [17, 21]: 5 (Herbicidal rate of 90% or more (almost completely withered))

From patent US20230085307A1, “PYRIDAZINONE COMPOUND AND HERBICIDE” (NISSAN CHEMICAL CORPORATION, priority 2019, published 2023)
